Data published in PubChem BioAssay (NCI).
Several values for one entry are separate records, joined by “and”; a condition that tells them apart may be missing. Equal entries are not always repeated.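 Grown in 96-well plates, cells were treated for 48 hours with each compound at five concentrations. Insufficient inhibition: endpoint recorded as highest concentration tested. The concentration for 50% growth inhibition is given as GI50. TGI marks complete inhibition of growth.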 *1 amine or outer side, *2 acyl side, *3 side chain or, on linkers, in order; H or OH if unused. Where a SMILES comes first, the peptide text is derived from it. Bridges are numbered along the chain shown (N, C = ends). [ ]: non-standard residue; d: D form. The star is where a group is joined. ξ: configuration not given here. X35 = CC[C@H](C)[C@@H](N[*:1])[C@@H](O)CC(=O)O[C@H](C(=O)[C@H](C)C(=O)[*:2])C(C)C; NMeY = CN[C@@H](Cc1ccc(O)cc1)C(=O)O; NMeF = CN[CH](Cc1ccccc1)C(=O)O; ξNMeF = CNC(Cc1ccccc1)C(=O)O; NMeV = CN[CH](C(=O)O)C(C)C; Boc = CC(C)(C)OC(=O)*; OBn = c1ccc(CO*)cc1

How the values were obtained:
Experiment in all cases: NCI-60 cell line screen, 48 h
SK-OV-3 ovarian = test system: SK-OV-3 ovarian
UACC-257 melanoma = test system: UACC-257 melanoma
EKVX NSCLC = test system: EKVX NSCLC
SK-MEL-28 melanoma = test system: SK-MEL-28 melanoma
COLO 205 colon = test system: COLO 205 colon
ACHN renal = test system: ACHN renal
SK-MEL-2 melanoma = test system: SK-MEL-2 melanoma
SR leukemia = test system: SR leukemia
HCC-2998 colon = test system: HCC-2998 colon
SW-620 colon = test system: SW-620 colon
SNB-19 CNS = test system: SNB-19 CNS
SF-295 CNS = test system: SF-295 CNS
DU-145 prostate = test system: DU-145 prostate

SMILES | TGI (SK-OV-3 ovarian) | TGI (UACC-257 melanoma) | TGI (EKVX NSCLC) | TGI (SK-MEL-28 melanoma) | TGI (COLO 205 colon) | TGI (ACHN renal) | TGI (SK-MEL-2 melanoma) | TGI (SR leukemia) | TGI (HCC-2998 colon) | TGI (SW-620 colon) | TGI (SNB-19 CNS) | TGI (SF-295 CNS) | TGI (DU-145 prostate) | GI50 (UACC-257 melanoma) | GI50 (ACHN renal) | GI50 (SNB-19 CNS)
Cc1ccc(Nc2cccc3c2C(=O)c2cccc(Nc4ccc(C)cc4S(=O)(=O)O)c2C3=O)c(S(=O)(=O)O)c1 | > 100 µM | > 100 µM | > 100 µM | > 100 µM | > 100 µM | > 100 µM | > 100 µM | > 100 µM | > 100 µM | > 100 µM | > 100 µM | – | – | – | – | –
CC[C@H](C)[C@H]1NC(=O)[C@@H](N)[C@@H](C)OC(=O)[C@H](Cc2ccc(OC)cc2)N(C)C(=O)[C@@H]2CCCN2C(=O)[C@H](CC(C)C)NC(=O)[C@@H](C)C(=O)[C@H](C(C)C)OC(=O)C[C@@H]1O (H-T[X35]LP[NMeY](Me); ester 1-C) | > 100 µM | > 100 µM | > 100 µM | > 100 µM | – | > 100 µM | > 100 µM | > 100 µM | > 100 µM | 50.1 µM | > 100 µM | > 100 µM | – | – | – | –
CCOC(=O)CN1C(=O)NC(C)(c2ccccc2)C1=O (centres undefined) | > 100 µM | > 100 µM | > 100 µM | > 100 µM | > 100 µM | > 100 µM | > 100 µM | – | > 100 µM | > 100 µM | > 100 µM | > 100 µM | > 100 µM | – | – | –
O=C1c2ccccc2C(=O)N1CCCOCc1c[nH]c(=O)[nH]c1=O | > 100 µM | > 100 µM | > 100 µM | > 100 µM | > 100 µM | > 100 µM | > 100 µM | – | – | > 100 µM | > 100 µM | > 100 µM | – | – | – | –
COc1cc(S(=O)(=O)Nc2ccc(-c3csc(N4C(=O)C(C)SC4c4cccs4)n3)cc2)ccc1Cl (centres undefined) | > 100 µM | – | > 100 µM | 69 µM | 49.4 µM | > 100 µM | 22.8 µM | > 100 µM | – | > 100 µM | – | > 100 µM | 53.1 µM | – | – | –
Nc1nc(SCC(=O)c2ccccc2)c2[nH]cnc2n1 | > 100 µM | > 100 µM | – | > 100 µM | > 100 µM | > 100 µM | > 100 µM | > 100 µM | > 100 µM | > 100 µM | > 100 µM | > 100 µM | – | – | – | –
CN(c1ccccc1)c1cc2ccccc2nn1 | > 100 µM | > 100 µM | > 100 µM | > 100 µM | > 100 µM | > 100 µM | > 100 µM | > 100 µM | – | > 100 µM | > 100 µM | > 100 µM | – | – | – | –
COc1cccc(NC(=O)CSc2nnc(Cc3ccccc3)o2)c1 | > 100 µM | > 100 µM | – | > 100 µM | > 100 µM | 63.6 µM | > 100 µM | – | > 100 µM | > 100 µM | > 100 µM | > 100 µM | – | – | – | –
CCN(CC)C(=O)CCn1cc(F)c(=O)[nH]c1=O | – | – | > 100 µM | > 100 µM | > 100 µM | > 100 µM | > 100 µM | > 100 µM | – | > 100 µM | > 100 µM | > 100 µM | – | – | – | –
CC(C)[C@@H](C(=O)N(C)[C@H](C(=O)N1CCC[C@H]1C(=O)OCc1ccccc1)C(C)C)N(C)C(=O)C(Cc1ccccc1)N(C)C(=O)[C@H](NC(=O)OC(C)(C)C)C(C)C (some centres undefined) (Boc-[dV][ξNMeF][NMeV][NMeV]P-OBn) | > 31.6 µM | > 31.6 µM | > 31.6 µM | > 31.6 µM | > 100 µM | > 100 µM | > 31.6 µM | > 31.6 µM | – | > 31.6 µM | > 31.6 µM | > 31.6 µM | – | – | – | –
CC(C)C(NC(=O)OC(C)(C)C)C(=O)N(C)C(Cc1ccccc1)C(=O)N(C)C(C(=O)OCc1ccccc1)C(C)C (stereo not drawn) (Boc-Val-[NMeF]-[NMeV]-OBn; configuration not given here) | > 100 µM | > 100 µM | > 100 µM | > 100 µM | > 100 µM | > 100 µM | – | > 100 µM and 96.2 µM | > 100 µM | > 100 µM | > 100 µM | > 100 µM | – | 20.5 µM and 44.3 µM | > 100 µM and 41 µM | > 100 µM and 32.8 µM
C=C1CC[C@@H]2C13[C@@H]1[C@H](CC(=O)[C@@]23C)C1(C)C (some centres undefined) | > 100 µM | > 100 µM | – | > 100 µM | > 100 µM | > 100 µM | > 100 µM | > 100 µM | – | > 100 µM | – | > 100 µM | > 100 µM | – | – | –
CC(O)CNC(=O)Nc1c(C(F)(F)F)cc(-c2ccccc2)[nH]c1=O (centres undefined) | > 100 µM | > 100 µM | > 100 µM | > 100 µM | > 100 µM | > 100 µM | > 100 µM | – | > 100 µM | > 100 µM | > 100 µM | > 100 µM | > 100 µM | – | – | –
C=CCCCCCCCCCP(=O)(c1ccccc1)c1ccc2c(c1)OCCOCCOCCOCCO2 (centres undefined) | 34.8 µM | 30.6 µM | 34.2 µM | 30.1 µM | 31 µM | 31.4 µM | 31.9 µM | 22.8 µM | 31.2 µM | 29.9 µM | 25.7 µM | 28.5 µM | – | – | – | –
